Values of other authors as cited in patent US11065250B2, “Solid dosage forms of palbociclib” (PFIZER INC., priority 2015, dated 2021).
Like-named read-outs stand apart in the source and are kept apart here.

Columns and labels:
[1] = low pH (2.1-4.5)

CC(=O)c1c(C)c2cnc(Nc3ccc(N4CCNCC4)cn3)nc2n(C2CCCC2)c1=O [Palbociclib, 6-acetyl-8-cyclopentyl-5-methyl-2-(5-piperazin-1-yl-pyridin-2-ylamino)-8H-pyrido[2,3-d]pyrimidin-7-one]
pKa (pyridine nitrogen): ~4.1 | pKa (secondary piperazine nitrogen): approximately 7.3 | pKa (pyridine nitrogen) (listed as palbociclib): approximately 4.1 | pKa (secondary piperazine nitrogen) (listed as palbociclib): ~7.3 | solubility in words [1]: water soluble
